Non-standard residues stand in square brackets, D forms with d. Residues, ends and D or L forms follow the SMILES beside them. pGlu = O=C1CC[C@@H](C(=O)O)N1
Legend:
[1] = system: lymphocytes of patients suffering from rheumatoid arthritis; experiment: Active E-rosette test, lymphocytes of rheumatoid arthritis patients; format: cell-based, human; conditions: for E-rosette forming activity, percentage amount of active lymphocytes: n = 4
Description: (§1) The active E-rosette test was carried out according to a modified method of Wybran et al [Wybran et al: New Engl. J. Med. 292, 475 (1975)] by the lymphocites of healthy and autoimmune patients (rheumatoid arthritis and systemic lupus erythematosus). To 50 μl of a lymphocyte cell suspension 10^-3 -10^-11 moles/lit. solutions of the test material were added and the mixture was incubated in an atmosphere containing 5.0% of carbon dioxide, at 37° C. for 60 minutes. Thereafter 50 μlit. of a 1% sheep erythrocite suspension were added and the mixture was centrifuged at 1000 r.p.m. for 10 minutes followed by shaking with a modified Gallenkampf-shaker (shaking time: 30 sec, stroke: 8 cm, shaking frequency: 65/min.). The rosettes were fixed with a 0.1% glutaric aldehyde (50 μlit. for each tube, 3 min.). Lymphocytes bonding more than three sheep erythrocite were counted under a microscope and 4×100 cells were evaluated. The separated lymphocytes contain macrophages and polymorphonuclear cells (up to 10%) as an impurity. The number of the cells forming the rosettes was corrected by this value each case.

[2] = system: lymphocytes of healthy persons; experiment: Active E-rosette test, lymphocytes of healthy persons; format: cell-based, human; conditions: for E-rosette forming activity, percentage amount of active lymphocytes: n = 4
Description: as §1

Compound | E-rosette forming activity, percentage amount of active lymphocytes ([1]; 10^-3 moles/liter) | E-rosette forming activity, percentage amount of active lymphocytes ([1]; 10^-5 moles/liter) | E-rosette forming activity, percentage amount of active lymphocytes ([1]; 10^-7 moles/liter) | E-rosette forming activity, percentage amount of active lymphocytes ([1]; 10^-9 moles/liter) | E-rosette forming activity, percentage amount of active lymphocytes ([1]; 10^-11 moles/liter) | E-rosette forming activity, percentage amount of active lymphocytes ([2]; 10^-3 moles/liter) | E-rosette forming activity, percentage amount of active lymphocytes ([2]; 10^-5 moles/liter) | E-rosette forming activity, percentage amount of active lymphocytes ([2]; 10^-7 moles/liter) | E-rosette forming activity, percentage amount of active lymphocytes ([2]; 10^-9 moles/liter) | E-rosette forming activity, percentage amount of active lymphocytes ([2]; 10^-11 moles/liter) | Effect on E-rosette forming activity (in words) ([2]; 10^-9 moles/lit.) | Effect on E-rosette forming activity (in words) ([2]; 10^-11 moles/lit.) | Effect on E-rosette forming activity (in words) ([1]; 10^-9 moles/lit.) | Effect on E-rosette forming activity (in words) ([1]; 10^-11 moles/lit.) | Effect on E-rosette forming activity (in words) ([1]; 10^-5 moles/lit.)
CC(C)[C@H](NC(=O)[C@H](CC(=O)O)NC(=O)[C@H](C)NC(=O)[C@@H](N)CCCNC(=N)N)C(=O)O [Arg--Ala--Asp--Val, Arg-Ala-Asp-Val] (H-RADV-OH) | 21.8% | 20.2% | 19.8% | 20.7% | 22.5% | 32.5% | 33.4% | 32.4% | 38.2% | 36.0% | – | – | – | – | –
CC(C)[C@H](NC(=O)[C@H](CCCCN)NC(=O)[C@H](CC(=O)O)NC(=O)[C@@H](N)CCCNC(=N)N)C(=O)O [Arg--Asp--Lys--Val, Arg-Asp-Lys-Val] (H-RDKV-OH) | 25.4% | 26.2% | 26.4% | 27.3% | 27.5% | 34.2% | 37.5% | 37.7% | 40.4% | 36.4% | significant stimulating effect | – | – | – | –
CC(C)[C@H](NC(=O)[C@H](C)NC(=O)[C@H](CCCCN)NC(=O)[C@@H](N)CCCNC(=N)N)C(=O)O [Arg--Lys--Ala--Val, Arg-Lys-Ala-Val] (H-RKAV-OH) | 20.3% | 23.4% | 21.7% | 25.5% | 23.1% | 33.3% | 30.5% | 35.8% | 34.5% | 30.9% | – | – | – | – | –
CC(C)[C@H](NC(=O)[C@H](CC(N)=O)NC(=O)[C@H](CCCCN)NC(=O)[C@@H](N)CCCNC(=N)N)C(=O)O [Arg--Lys--Asn--Val, Arg-Lys-Asn-Val] (H-RKNV-OH) | 22.3% | 21.9% | 24.6% | 23.7% | 24.3% | 35.5% | 39.1% | – | 35.4% | 36.7% | – | – | – | – | –
CC[C@H](C)[C@H](NC(=O)[C@H](CC(=O)O)NC(=O)[C@H](CCCCN)NC(=O)[C@@H](N)CCCNC(=N)N)C(=O)O [Arg--Lys--Asp--Ile, Arg-Lys-Asp-Ile] (H-RKDI-OH) | 25.5% | 25.4% | 23.2% | 28.7% | 24.5% | 35.5% | 32.0% | 34.9% | 35.0% | 30.7% | – | – | – | – | –
CC(C)[C@H](NC(=O)[C@H](CCC(=O)O)NC(=O)[C@H](CCCCN)NC(=O)[C@@H](N)CCCNC(=N)N)C(=O)O [Arg--Lys--Glu--Val, Arg-Lys-Glu-Val] (H-RKEV-OH) | – | – | – | – | – | 33.2% | 32.9% | 36.2% | 35.4% | 33.0% | – | – | – | – | –
N=C(N)NCCC[C@H](NC(=O)[C@@H]1CCC(=O)N1)C(=O)N[C@@H](CCCCN)C(=O)N[C@@H](CC(=O)O)C(=O)O [Glp--Arg--Lys--Asp, Glp-Arg-Lys-Asp] ([pGlu]RKD-OH) | 20.6% | 18.7% | 19.5% | 19.7% | 18.4% | 29.1% | 33.8% | 35.1% | 26.6% | 38.1% | – | stimulating effect | – | – | –
CC(C)[C@H](NC(=O)[C@H](CC(=O)O)NC(=O)[C@H](CCCNC(=N)N)NC(=O)[C@@H](N)CCCCN)C(=O)O [Lys--Arg--Asp--Val, Lys-Arg-Asp-Val] (H-KRDV-OH) | 23.6% | 25.8% | 21.2% | 25.7% | 26.6% | 31.5% | 25.6% | 30.0% | 29.1% | 32.9% | – | – | significantly stimulated | stimulating effect | –
N=C(N)NCCC[C@H](NC(=O)[C@@H]1CCC(=O)N1)C(=O)N[C@@H](CCCCN)C(=O)N[C@@H](CC(=O)O)C(=O)O [compound No. 8] ([pGlu]RKD-OH) | – | – | – | – | – | – | – | – | – | – | – | – | – | – | significant inhibiting activity
CC(C)[C@H](NC(=O)[C@H](CC(N)=O)NC(=O)[C@H](CCCCN)NC(=O)[C@@H](N)CCCNC(=N)N)C(=O)O [compound No. 9] (H-RKNV-OH) | – | – | – | – | – | – | – | – | – | – | – | – | – | – | significant inhibiting activity
